The text below walks through data of US9993538B2, “Peptide vaccine therapy for treatment of FRα-expressing tumors” (Galena Biopharma, Inc., priority 2015, dated 2018).

No end group written: not given here.

The subject of data set [1] is tumor-associated lymphocyte (TAL). The settings on record: cited from earlier work.
The nature of data set [2]: Booster study: local reactions (LR) 48-72 hours after each booster, safety. In kind it is in vivo, human. Particulars: 500 mcg peptide + 250 mcg GM-CSF booster. From the text:
Booster inoculations of peptide vaccines may improve disease-free survival (DFS) (e.g., U.S. Pat. No. 8,222,214), but repeated boosting can theoretically lead to overstimulation and loss of vaccine-induced T cells. Therefore, to assess the use of the attenuated E39′ peptide as a booster, E39-vaccinated patients described in Example 1 were randomized to receive either E39 or E39′ as a booster to determine the effect on long-term E39-specific immunity. Patients in the VG received six intradermal E39 injections as described in Example 1 as a primary vaccination schedule (PVS). […]
Local reactions (LR) were recorded 48-72 hours after each booster. Immune response was determined by measurement of E39 specific CTL levels using a Dextramer reagents in accordance with the manufacturer's instructions (Immudex Limited, Copenhagen, Denmark) as previously described (e.g., Tario et al. Cytometry B Clin. Cytom. 2015; 88B:6-20; Baba J. Transl Med. 2010; 8:84), at R0 (baseline pre-vaccination), RC1(1 month after completion of PVS), RC6 (6 months after completion of PVS and before booster), RC7 (1 month after booster) and RC12 (6 months after booster and 12 months after completion of PVS). Demographic, safety, immunological, and DFS data were collected and evaluated.

Details of data set [3]: species or system human. Particulars: in vivo. From the text: Eligible patients were identified with endometrial, ovarian, fallopian tube or peritoneal cancer and were disease-free after standard of care therapies. Patients were surgically or naturally post-menopausal. Exclusion criteria included patients currently receiving immunosuppressive therapy to include chemotherapy, steroids or methotrexate, poor health (ECOG […]), evidence of end-organ dysfunction, pregnancy, breast feeding, history of autoimmune disease, and involvement in other experimental protocols (except with permission of the principal investigator of the other study). […]
The E39 peptide (FBP 191-199, EIWTHSYKV) was produced commercially by an FDA-compliant production facility for patient use. […] This dose (250 mcg) of GM-CSF has been previously determined to be a safe and effective dose, based on our prior work with NeuVax^6. […]
The phase I portion of this trial consisted of dose escalation to determine a safe and effective dose of the E39 peptide. […] Prior to the fourth inoculation, each patient was assessed for liver, renal, and hematopoietic dysfunction. […]
Standard local and systemic toxicities were collected and graded per the National Cancer Institute Common Terminology Criteria for Adverse Events, v4.03 toxicity scale. […] Systemic toxicity and inoculation site local reactions were also determined after 48-72 hours.

For “E41: FRα-derived immunogenic peptide E41 (FRα 245-253) (LLSLALMLL; UniProt P15328 245-253, looked up, fragment)”, the “effect on TAL proliferation and anti-tumor function” value in data set [1] was “capable of enhancing tumor-associated lymphocyte (TAL) proliferation and anti-tumor function”.
For EIWTFSTKV [E39′, EIWTFSTKV], the safety of booster entry in data set [2] is recorded as “safe”.
With EIWTHSYKV [E39, EIWTHSYKV], the “patients experiencing grade 3 toxicity” value in data set [3] was 1 patient.
